Consider 26 molecules from patent US20240336574A1 (LATIGO BIOTHERAPEUTICS, INC., priority 2021, published 2024).

Test [1] deals with human NaV1.8 (Homo sapiens, UniProt Q9Y5Y9). In words: Human NaV1.8 cell line SyncroPatch384PE automated patch clamp assay. The test is classed as cell-based. Set-up: expressed in transfected cells; host or cells: HEK cells, stably transfected. To be noted: resting state block (P1 measurement), recombinant human NaV1.8 cells. The method, then:
Compound Profiling on NaV1.8—Human NaV1.8 Cell Line—SyncroPatch384PE Assay
Compounds were tested on recombinant human NaV1.8 stably transfected HELK cells using the SyncroPatch384PE system, an automated patch clamp device. Cells were cultured at 37° C./5% CO2 in DMEM medium supplemented with GlutaMAX I, NEAA 1%, FBS 10% and seeded in T175 flasks. Cells were cultured at 30° C. one day prior to recording sodium currents. On the day of the recordings, cells were detached with 0.05% Trypsin-EDTA, resuspended in serum free DMEM medium and placed into the SyncroPatch384PE 6° C. pre-cooled cell hotel and shaken at 200 rpm. Intracellular solution (IC) contained, in mM: 10, CsCl; 110, CsF; 20, EGTA; 10, HEPES. Extracellular solution (EC) contained, in mM: 140, NaCl; 4, KCl; 5, Glucose; 10, HEPES; 2, CaCl2; 1, MgCl2. Washing solution contained, in mM: 40, NMDG; 100, NaCl; 4, KCl; 10, Glucose; 10, HEPES; 5, CaCl2; 1, MgCl2.
Compounds were tested in quadruplicates in 0.1% DMSO and 0.030% Pluronic Acid. Compounds were diluted 1:3.33 in EC solution to create a 10-point concentration response curve, spanning a final concentration range from 10-0.0002 μM in the assay plate. Compounds with low nM potency were retested using a lower concentration range (1-0.00002 μM). Each plate contained tetracaine and another tool compound as positive controls. Up to 7 compounds were tested on one plate. 150 μM tetracaine and 0.1% DMSO were used as high and low controls, respectively.
Whole cell patch clamp recordings were conducted according to Nanion's standard procedure for SyncroPatch384PE®. Cells were held at a holding potential of −120 mV. A depolarization step to 10 mV for 30 ms was applied (P1 measurement), followed by a hyperpolarization step to −100 mV for 100 ms. An inactivation step at −40 mV for 10 sec was applied before stepping to −100 mV for 20 ms, followed by a step to 10 mV for 30 ms (P2 measurement) and then back to −100 mV for 30 ms. Sweep interval was 15 sec with a sampling rate of 10 kHz. Following establishment of the whole-cell configuration in EC, two washing steps with reference buffer were performed to stabilize the baseline. Compounds were then applied by the SynchroPatch into each well and the current was recorded for five minutes in EC, followed by application of tetracaine to achieve full block at the end of the experiment. The potency of the compounds was assessed on two read-outs, resting state block (P1 measurement) or inactivated state block (P2 measurement) to obtain IC50 values. Values were normalized to high (tetracaine) and low (DMSO) controls.
Background: Patch clamp records ionic current or voltage across a cell membrane.

For test [2], the target named is T1, recombinant human NaV1.8 stably transfected HEK cells (Homo sapiens, UniProt Q9Y5Y9).
T1 construct: expressed in transfected cells; host or cells: HEK cells, stably transfected
In words: Compound profiling on NaV1.8, human NaV1.8 cell line, SyncroPatch384PE automated patch clamp assay (Example 115, third set of compounds, Table 27). The test is classed as cell-based. To be noted: human NaV1.8 HEK cells, Table 27 (third set of compounds). An outline of the steps: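 HEK cells, cultured at 30 °C the day before, recorded by automated whole-cell patch clamp (CsF intracellular, 140 mM Na+ external), holding −120 mV. 10-point curves at 10–0.0002 µM (or 1–0.00002 µM), 5 min exposure; IC50 for resting (P1) and inactivated-state block (P2, after 10 s at −40 mV), normalized to 150 µM tetracaine and 0.1% DMSO.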

Where [3] appears, read: inactivated state block (P2 measurement), read-out: P2 IC50.
Where [4] appears, read: resting state block (P1 measurement), read-out: P1 IC50.

Read-outs that look alike come from different tables or passages of the source.

Sequence of human NaV1.8 (Q9Y5Y9 whole entry): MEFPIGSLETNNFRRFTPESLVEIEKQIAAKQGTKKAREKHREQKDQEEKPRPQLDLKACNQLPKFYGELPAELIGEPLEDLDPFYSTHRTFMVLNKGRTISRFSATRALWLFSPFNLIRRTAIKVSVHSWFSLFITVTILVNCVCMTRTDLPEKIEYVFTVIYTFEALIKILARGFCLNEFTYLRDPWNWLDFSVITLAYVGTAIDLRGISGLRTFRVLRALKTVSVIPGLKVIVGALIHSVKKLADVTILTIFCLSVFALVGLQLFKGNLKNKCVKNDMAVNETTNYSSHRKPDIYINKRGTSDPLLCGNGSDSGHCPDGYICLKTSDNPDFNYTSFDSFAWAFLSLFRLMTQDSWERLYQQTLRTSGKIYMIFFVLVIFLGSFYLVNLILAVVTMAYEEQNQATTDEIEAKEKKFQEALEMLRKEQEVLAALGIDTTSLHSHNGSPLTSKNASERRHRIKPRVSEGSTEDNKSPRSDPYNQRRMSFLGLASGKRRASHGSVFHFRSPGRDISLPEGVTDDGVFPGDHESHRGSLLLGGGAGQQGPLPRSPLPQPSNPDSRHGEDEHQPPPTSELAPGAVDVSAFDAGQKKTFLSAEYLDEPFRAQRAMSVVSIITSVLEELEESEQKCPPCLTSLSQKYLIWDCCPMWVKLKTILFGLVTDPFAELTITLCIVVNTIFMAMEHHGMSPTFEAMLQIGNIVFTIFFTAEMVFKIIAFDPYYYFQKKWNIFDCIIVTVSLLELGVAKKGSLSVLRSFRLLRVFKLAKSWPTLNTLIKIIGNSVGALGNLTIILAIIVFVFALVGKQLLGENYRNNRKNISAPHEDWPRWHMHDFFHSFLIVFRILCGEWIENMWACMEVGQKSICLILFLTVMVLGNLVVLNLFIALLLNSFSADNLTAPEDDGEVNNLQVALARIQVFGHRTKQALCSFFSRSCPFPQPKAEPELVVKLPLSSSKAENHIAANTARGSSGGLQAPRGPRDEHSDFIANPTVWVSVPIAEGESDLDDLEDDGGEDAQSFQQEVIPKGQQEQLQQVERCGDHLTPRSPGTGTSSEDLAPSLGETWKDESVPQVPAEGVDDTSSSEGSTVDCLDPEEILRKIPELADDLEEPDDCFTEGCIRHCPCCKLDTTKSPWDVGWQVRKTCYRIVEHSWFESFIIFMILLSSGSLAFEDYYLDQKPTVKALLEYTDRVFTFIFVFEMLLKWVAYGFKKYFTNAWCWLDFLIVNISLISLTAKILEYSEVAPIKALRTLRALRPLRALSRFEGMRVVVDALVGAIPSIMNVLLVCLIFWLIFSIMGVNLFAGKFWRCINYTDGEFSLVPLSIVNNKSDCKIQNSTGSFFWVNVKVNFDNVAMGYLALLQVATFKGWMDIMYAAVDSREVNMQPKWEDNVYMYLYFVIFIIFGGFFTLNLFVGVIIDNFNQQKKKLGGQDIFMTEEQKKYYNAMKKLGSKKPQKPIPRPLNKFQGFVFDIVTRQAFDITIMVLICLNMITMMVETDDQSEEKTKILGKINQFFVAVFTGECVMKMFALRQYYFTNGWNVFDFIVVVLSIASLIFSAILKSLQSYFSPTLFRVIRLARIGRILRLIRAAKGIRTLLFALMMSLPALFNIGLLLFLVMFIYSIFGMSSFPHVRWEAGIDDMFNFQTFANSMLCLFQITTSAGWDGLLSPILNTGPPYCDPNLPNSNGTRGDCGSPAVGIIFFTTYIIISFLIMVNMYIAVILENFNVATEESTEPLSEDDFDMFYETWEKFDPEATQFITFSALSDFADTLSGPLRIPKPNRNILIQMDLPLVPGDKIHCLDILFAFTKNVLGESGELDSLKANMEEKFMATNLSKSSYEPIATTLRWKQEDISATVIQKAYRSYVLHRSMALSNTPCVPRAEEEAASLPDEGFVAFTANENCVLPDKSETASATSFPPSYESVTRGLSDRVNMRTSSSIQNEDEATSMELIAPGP
T1 sequence (Q9Y5Y9 whole entry): as above

As to `CC(=O)N1CCC[C@@H](NC(=O)c2cc(C(F)(F)F)nnc2Oc2ccc(F)cc2C)C1` [Compound 4], the half-maximal inhibitory concentration (IC50) in test [1] was > 5000 nM.
Turning to `COc1cc(F)ccc1Oc1nnc(C(F)(F)F)cc1C(=O)N[C@H]1CCCN(C(=O)OC(C)(C)C)C1` [Compound 5, tert-Butyl (S)-3-(3-(4-fluoro-2-methoxyphenoxy)-6-(trifluoromethyl)pyridazine-4-carboxamido)piperidine-1-carboxylate], the IC50 in test [1] was > 5000 nM.
On to `COc1cc(F)ccc1Oc1nnc(C(F)(F)F)cc1C(=O)N[C@H]1CCCNC1` [Compound 6, (S)-3-(4-Fluoro-2-methoxyphenoxy)-N-(piperidin-3-yl)-6-(trifluoromethyl)pyridazine-4-carboxamide], for which, in test [1], the IC50 is > 5000 nM.
Still for that read-out and setting: next, `COc1cc(F)ccc1Oc1nnc(C(F)(F)F)cc1C(=O)N[C@H]1CCCN(C(C)=O)C1` [Compound 8]: > 5000 nM.
Still for that read-out and setting: the result for `COc1cc(F)ccc1Oc1nnc(C(F)(F)F)cc1C(=O)NC1CCCNC1=O` (stereo not drawn) [Compound 9] reads > 5000 nM.
Still for that read-out and setting: the result for `Cc1cc(F)ccc1Oc1nnc(C(F)(F)F)cc1C(=O)NC1CCCNC1=O` (stereo not drawn) [Compound 10] reads > 5000 nM.
On to `Cc1cc(F)ccc1Oc1nnc(C(F)(F)F)cc1C(=O)NC1CCC(=O)NC1` (stereo not drawn) [Compound 11], for which, in test [1], the IC50 is > 5000 nM.
For `COc1ccc(F)cc1Oc1nnc(C(F)(F)F)cc1C(=O)Nc1cccc(S(C)(=N)=O)c1` (stereo not drawn) [Compound 116], the IC50 in test [2] (setting [3]) and in test [2] (setting [4]) was 201 to 500 nM each time.
With `Cc1cc(Br)ccc1Oc1nnc(C(F)(F)F)cc1C(=O)Nc1cccc(S(C)(=N)=O)c1` (stereo not drawn) [Compound 117, 3-(4-Bromo-2-methylphenoxy)-N-(3-(S-methylsulfonimidoyl)phenyl)-6-(trifluoromethyl)pyridazine-4-carboxamide], the IC50 in test [2] (setting [3]) and in test [2] (setting [4]) was ≤ 200 nM in each case.
Regarding `NS(=O)(=O)c1cccc(NC(=O)c2cc(C(F)(F)F)nnc2Oc2cc(F)ccc2Cl)c1` [Compound 118, 3-(2-Chloro-5-fluorophenoxy)-N-(3-sulfamoylphenyl)-6-(trifluoromethyl)pyridazine-4-carboxamide], the IC50 in test [2] (setting [3]) and in test [2] (setting [4]) was ≤ 200 nM each time.
Turning to `Cc1ccc(F)cc1Oc1nnc(C(F)(F)F)cc1C(=O)Nc1cccc(S(N)(=O)=O)c1` [Compound 119, 3-(5-Fluoro-2-methylphenoxy)-N-(3-sulfamoylphenyl)-6-(trifluoromethyl)pyridazine-4-carboxamide], the IC50 in test [2] (setting [3]) and in test [2] (setting [4]) was 501 to 1000 nM throughout.
With `COc1cc(C#N)ccc1Oc1nnc(C(F)(F)F)cc1C(=O)Nc1cccc(S(N)(=O)=O)c1` [Compound 121, 3-(4-Cyano-2-methoxyphenoxy)-N-(3-sulfamoylphenyl)-6-(trifluoromethyl)pyridazine-4-carboxamide], the IC50 in test [2] (setting [3]) and in test [2] (setting [4]) was ≤ 200 nM throughout.
Consider `COc1ccc(F)cc1Oc1nnc(C(F)(F)F)cc1C(=O)Nc1cccc(S(N)(=O)=O)c1` [Compound 122, 3-(5-Fluoro-2-methoxyphenoxy)-N-(3-sulfamoylphenyl)-6-(trifluoromethyl)pyridazine-4-carboxamide], for which the IC50 lay within 201 to 500 nM in test [2] (setting [3]) and 501 to 1000 nM in test [2] (setting [4]).
The corresponding values for `Cc1cc(C#N)ccc1Oc1nnc(C(F)(F)F)cc1C(=O)Nc1cccc(S(N)(=O)=O)c1` [Compound 123, 3-(4-Cyano-2-methylphenoxy)-N-(3-sulfamoylphenyl)-6-(trifluoromethyl)pyridazine-4-carboxamide] are ≤ 200 nM and ≤ 200 nM.
The corresponding values for `COc1cc(F)ccc1Oc1nnc(C(F)(F)F)cc1C(=O)Nc1ccc(C(N)=O)nc1` [Compound 125, N-(6-Carbamoylpyridin-3-yl)-3-(4-fluoro-2-methoxyphenoxy)-6-(trifluoromethyl)pyridazine-4-carboxamide] are 201 to 500 nM and ≤ 200 nM.
In the same order, the values of `COc1cc(F)ccc1Oc1nnc(C(F)(F)F)cc1C(=O)Nc1ccnc(C(N)=O)c1` [Compound 126, N-(2-Carbamoylpyridin-4-yl)-3-(4-fluoro-2-methoxyphenoxy)-6-(trifluoromethyl)pyridazine-4-carboxamide] are ≤ 200 nM and ≤ 200 nM.
As to `CNC(=O)c1ccc(NC(=O)c2cc(C(F)(F)F)nnc2Oc2ccc(F)cc2OC)cc1` [Compound 127, 3-(4-Fluoro-2-methoxyphenoxy)-N-(4-(methylcarbamoyl)phenyl)-6-(trifluoromethyl)pyridazine-4-carboxamide], the IC50 in test [2] (setting [3]) and in test [2] (setting [4]) was 501 to 1000 nM each time.
`COc1cc(F)ccc1Oc1nnc(C(F)(F)F)cc1C(=O)Nc1cncc(C(N)=O)n1` [Compound 128, N-(6-Carbamoylpyrazin-2-yl)-3-(4-fluoro-2-methoxyphenoxy)-6-(trifluoromethyl)pyridazine-4-carboxamide]: the 50% inhibitory concentration (IC50) in test [2] (setting [3]) and in test [2] (setting [4]) was > 5000 nM each time.
In the case of `CNC(=O)c1cccc(NC(=O)c2cc(C(F)(F)F)nnc2Oc2ccc(F)cc2OC)c1` [Compound 129, 3-(4-Fluoro-2-methoxyphenoxy)-N-(3-(methylcarbamoyl)phenyl)-6-(trifluoromethyl)pyridazine-4-carboxamide], the IC50 in test [2] (setting [3]) and in test [2] (setting [4]) was 201 to 500 nM in each case.
Consider `CS(=O)(=O)c1cccc(NC(=O)c2cc(C(F)(F)F)nnc2Oc2ccc(F)cc2O)c1` [Compound 130, 3-(4-Fluoro-2-hydroxyphenoxy)-N-(3-(methylsulfonyl)phenyl)-6-(trifluoromethyl)pyridazine-4-carboxamide], for which the IC50 in test [2] (setting [3]) was 1000 to 5000 nM; in test [2] (setting [4]), > 5000 nM.
In the same order, the values of `NS(=O)(=O)c1cccc(NC(=O)c2cc(C(F)(F)F)nnc2Oc2ccc(F)cc2O)c1` [Compound 131, 3-(4-Fluoro-2-hydroxyphenoxy)-N-(3-sulfamoylphenyl)-6-(trifluoromethyl)pyridazine-4-carboxamide] are 501 to 1000 nM and 201 to 500 nM.
The corresponding values for `Cc1cc(-c2cnoc2)ccc1Oc1nnc(C(F)(F)F)cc1C(=O)Nc1cccc(S(C)(=O)=O)c1` [Compound 132, N-(3-Methanesulfonylphenyl)-3-[2-methyl-4-(1,2-oxazol-4-yl)phenoxy]-6-(trifluoromethyl)pyridazine-4-carboxamide] are ≤ 200 nM and 201 to 500 nM.
In the same order, the values of `Cc1cc(-c2cn[nH]c2)ccc1Oc1nnc(C(F)(F)F)cc1C(=O)Nc1cccc(S(C)(=O)=O)c1` [Compound 133, 3-[2-Methyl-4-(1H-pyrazol-4-yl)phenoxy]-N-(3-methylsulfonylphenyl)-6-(trifluoromethyl)pyridazine-4-carboxamide] are > 5000 nM and > 5000 nM.
In the case of `Cc1cc(F)ccc1Oc1nnc(C(F)(F)F)cc1C(=O)Nc1cccc2nncn12` [Compound 134, 3-(4-Fluoro-2-methyl-phenoxy)-N-([1,2,4]triazolo[4,3-a]pyridin-5-yl)-6-(trifluoromethyl)pyridazine-4-carboxamide], the IC50 in test [2] (setting [3]) and in test [2] (setting [4]) was > 5000 nM in each case.
For the molecule `Cc1cc(F)ccc1Oc1nnc(C(F)(F)F)cc1C(=O)Nc1ccn2nnnc2c1` [Compound 135, 3-(4-Fluoro-2-methylphenoxy)-N-(tetrazolo[1,5-a]pyridin-7-yl)-6-(trifluoromethyl)pyridazine-4-carboxamide], the IC50 in test [2] (setting [3]) was 501 to 1000 nM; in test [2] (setting [4]) it was ≤ 200 nM.
In the case of `COc1c(Oc2ncc(C(F)(F)F)nc2C(=O)Nc2cccc(S(C)(=N)=O)c2)ccc(F)c1F` (stereo not drawn) [Compound 136, 3-(3,4-difluoro-2-methoxy-phenoxy)-N-[3-(methylsulfonimidoyl)phenyl]-6-(trifluoromethyl)pyrazine-2-carboxamide], the IC50 in test [2] (setting [3]) and in test [2] (setting [4]) was ≤ 200 nM throughout.

Usually IC50 stands for the concentration that gives 50% inhibition.
